Test results: US20120190752A1, “EXO-S-MECAMYLAMINE METHOD, USE, AND COMPOUND FOR TREATMENT” (Targacept Inc., priority 2009, published 2012)

Tested on: subjects with major depressive disorder (MDD) who were inadequate responders to citalopram
Assay: HAMD Anxiety/Somatization Factor, Phase 2b add-on trial
Format: in vivo, human
Procedure: In more detail, a multi-center double-blind, randomized, placebo-controlled, parallel group, flexible dose titration study of TC-5214 as adjunctive therapy in subjects with major depressive disorder (MDD) who were inadequate responders to citalopram was conducted in centers in the US and India. The study consisted of a screening period, baseline/washout period, open-label phase, double-blind phase, and a follow-up visit. Subject participation in the study could continue for up to 16 weeks of treatment. Following a washout period of up to 28 days for other antidepressants, subjects with MDD and a MADRS total score >/=28 and a Clinical Global Impression-Severity (CGI-S) score >/=4 were enrolled on Day 1 into an open-label citalopram-only phase of the study. This phase lasted 8 weeks, with citalopram (CIT) dose increased from a once-daily dose of 20 mg (Day 1 through Week 4) to 40 mg (Week 4 through Week 8). A total of 579 subjects entered the open-label citalopram phase. At Week 8, subjects who tolerated 40 mg CIT, but whose MADRS score was reduced <50% from baseline and no lower than 17, and CGI-S≧4, were considered inadequate responders. These subjects (n=270) were randomized in a double-blind fashion to receive either placebo or TC-5214-23 as add-on therapy to continued CIT. The double-blind phase of the study also lasted 8 weeks (Week 8 to Week 16). Study drug, TC-5214-23 or placebo, was started at 2 mg daily (1 mg twice per day [BID] dosing), added on to continuing CIT (40 mg PO qd). After 2 weeks of treatment, the dose of TC-5214 could be increased to 4 mg (2 mg BID) or continued unchanged, with up-titration based upon good tolerability and inadequate therapeutic response. After a further 2 weeks, the dose of TC-5214 could be increased again to 8 mg (4 mg BID) if judged appropriate by the investigator, based upon good tolerability and inadequate therapeutic response. At any time during the double-blind phase of the study, placebo or TC-5214-23 could be reduced to the previous dose level following the emergence of unacceptable adverse events (AEs). […] At this follow-up, any signs or symptoms of relapse were evaluated. If a subject was prematurely discontinued from the study between Week 8 and Week 16 for any reason, the investigator was to make every effort to perform all evaluations as per protocol, assuming the subject had reached the end of the double-blind add-on treatment phase. These evaluations were to be made as soon as possible and within 2 weeks of discontinuation. […] There was no meaningful difference in results as a function of age, gender, site, or smoking status. With regard to efficacy endpoints, the following tables present efficacy used in the ITT (Intent-to-Treat) and PP (Per Protocol) populations unless otherwise specific. The primary inference was based upon Week 16 visit using the ITT population. Change from baseline was obtained by subtracting the baseline values from the individual on-treatment values. Change from Week 16 was obtained by subtracting the Week 16 values from the individual follow-up visit (Week 18/19) values. If either the baseline or Week 16 or on-treatment or follow-up value was missing, the change from baseline or Week 16 value was also set to missing. To account for missing data, the last observation carry forward (LOCF) method was used for the ITT and PP populations. Thus, the last available on-therapy observation for a subject, including the observation at premature discontinuation, was used to estimate subsequent missing data points. For efficacy, baseline data were collected at Week 8 in the double-blind augmentation phase electronic case report form pages. Analysis for the secondary endpoints were performed on both the ITT and PP populations. The secondary endpoints were as follows in Table 5. [table]

[1] = ITT, Double Blind Week 16 LOCF (change from Week 8)
[2] = ITT, Double Blind Week 18 LOCF (Follow-up), change from Week 16
[3] = PP, Double Blind Week 16 LOCF (change from Week 8)
[4] = PP, Double Blind Week 18 LOCF (Follow-up), change from Week 16

SMILES: CNC1(C)C2CCC(C2)C1(C)C (stereo in doubt) [TC-5214, (S)—N,2,3,3-tetramethylnorbornan-2-amine]
- HAMD anxiety/somatization subscale score change from baseline compared with placebo (ITT and PP populations, result in words): statistically significant decreases (improvements)
- HAMD anxiety/somatization Mean Difference between TC-5214 and Placebo [1]: 1.93
- HAMD anxiety/somatization subscale Adjusted Mean change [1]: −4.58
- HAMD anxiety/somatization Mean Difference between TC-5214 and Placebo [2]: −0.00
- HAMD anxiety/somatization subscale Adjusted Mean change [2]: −0.14
- HAMD anxiety/somatization Mean Difference between TC-5214 and Placebo [3]: 1.92
- HAMD anxiety/somatization subscale Adjusted Mean change [3]: −4.93
- HAMD anxiety/somatization Mean Difference between TC-5214 and Placebo [4]: 0.01
- HAMD anxiety/somatization subscale Adjusted Mean change [4]: −0.16
